Data: publication PMC10326263 (Acta Pharmaceutica Sinica. B, 2023)

Columns and labels:
[1] = system: HIV-1 mutant strain RES056 (K103N + Y181C); assay: microbe, parasite or virus in culture; type: cell-based; conditions: Human immunodeficiency virus 1, MT4, read-out: EC50 RES056
[2] = system: HIV-1 mutant strain L100I; assay: microbe, parasite or virus in culture; type: cell-based; conditions: Human immunodeficiency virus 1, MT4, read-out: EC50 L100I
[3] = system: HIV-1 mutant strain K103N; assay: microbe, parasite or virus in culture; type: cell-based; conditions: Human immunodeficiency virus 1, MT4, read-out: EC50 K103N
[4] = system: HIV-1 mutant strain Y181C; assay: microbe, parasite or virus in culture; type: cell-based; conditions: Human immunodeficiency virus 1, MT4, read-out: EC50 Y181C
[5] = system: HIV-1 mutant strain F227L + V106A; assay: microbe, parasite or virus in culture; type: cell-based; conditions: Human immunodeficiency virus 1, MT4, read-out: EC50 F227L + V106A
[6] = Cytotoxicity in mock-infected MT-4 cells, MTT method; type: cell-based; conditions: human, mock-infected MT-4 cells, CC50, mock-infected MT-4 cells
[7] = system: HIV-1 WT strain (IIIB); assay: Anti-HIV activity against WT HIV-1
[8] = system: HIV-1 mutant strain E138K; assay: microbe, parasite or virus in culture; type: cell-based; conditions: Human immunodeficiency virus 1, MT4, read-out: EC50 E138K
[9] = system: HIV-1 mutant strain Y188L; assay: microbe, parasite or virus in culture; type: cell-based; conditions: Human immunodeficiency virus 1, MT4, read-out: EC50 Y188L

Row | SMILES | EC50 [1] | EC50 [2] | EC50 [3] | EC50 [4] | EC50 [5] | CC50 at 5 days [6] | SI IIIB (CC50/EC50 ratio) ([7]; WT HIV-1 IIIB) | EC50 [8] | EC50 [9] | selectivity index, times higher than that of IAS-0 ([7]; WT HIV-1) | EC50 ([7]; read-out: EC50 IIIB, WT HIV-1 IIIB, MT-4 cells)
1 | Cc1cc(C)cc(S(=O)(=O)c2c(C(=O)NCCNS(=O)(=O)c3ccccc3)[nH]c3ccc(Cl)cc23)c1 [R9L2, 5-Chloro-3-((3,5-dimethylphenyl)sulfonyl)-N-(2-(phenylsulfonamido)ethyl)-1H-indole-2-carboxamide] | 3140 ± 110 nM | 260 ± 110 nM | 240 ± 37 nM | 260 ± 73 nM | 1120 ± 350 nM | 185000 ± 8310 nM | 13,509 | 220 ± 73 nM | 2810 ± 290 nM | – | –
2 | Cc1cc(C)cc(S(=O)(=O)c2c(C(=O)NCCCNS(=O)(=O)c3ccccc3)[nH]c3ccc(Cl)cc23)c1 [R9L3, 5-Chloro-3-((3,5-dimethylphenyl)sulfonyl)-N-(3-(phenylsulfonamido)propyl)-1H-indole-2-carboxamide] | 4760 ± 800 nM | 180 ± 54 nM | 320 ± 72 nM | 700 ± 270 nM | 800 ± 250 nM | > 224000 nM | >8047 | 55 ± 18 nM | 3080 ± 250 nM | – | –
3 | Cc1cc(C)cc(S(=O)(=O)c2c(C(=O)NCCCCNS(=O)(=O)c3ccccc3)[nH]c3ccc(Cl)cc23)c1 [R9L4, 5-Chloro-3-((3,5-dimethylphenyl)sulfonyl)-N-(4-(phenylsulfonamido)butyl)-1H-indole-2-carboxamide] | > 115000 nM | 28 ± 8.7 nM | 150 ± 45 nM | 150 ± 33 nM | 280 ± 52 nM | 113000 ± 26800 nM | 15,106 | 31 ± 7 nM | 870 ± 170 nM | – | –
4 | Cc1cc(C)cc(S(=O)(=O)c2c(C(=O)NCCCCCNS(=O)(=O)c3ccccc3)[nH]c3ccc(Cl)cc23)c1 [R9L5, 5-Chloro-3-((3,5-dimethylphenyl)sulfonyl)-N-(5-(phenylsulfonamido)pentyl)-1H-indole-2-carboxamide] | > 119000 nM | 44 ± 5 nM | 340 ± 51 nM | 220 ± 17 nM | 220 ± 85 nM | 129000 ± 6850 nM | 8814 | 36 ± 7 nM | 1460 ± 560 nM | – | –
5 | Cc1cc(C)cc(S(=O)(=O)c2c(C(=O)NCCNS(=O)(=O)c3cccnc3)[nH]c3ccc(Cl)cc23)c1 [R10L2, 5-Chloro-3-((3,5-dimethylphenyl)sulfonyl)-N-(2-(pyridine-3-sulfonamido)ethyl)-1H-indole-2-carboxamide] | 4600 ± 310 nM | 140 ± 46 nM | 290 ± 55 nM | 290 ± 18 nM | 1480 ± 270 nM | 23400 ± 750 nM | 3205 | 120 ± 33 nM | 2200 ± 400 nM | – | –
6 | Cc1cc(C)cc(S(=O)(=O)c2c(C(=O)NCCCNS(=O)(=O)c3cccnc3)[nH]c3ccc(Cl)cc23)c1 [R10L3, 5-Chloro-3-((3,5-dimethylphenyl)sulfonyl)-N-(3-(pyridine-3-sulfonamido)propyl)-1H-indole-2-carboxamide] | 7770 ± 2320 nM | 100 ± 32 nM | 200 ± 36 nM | 200 ± 18 nM | 540 ± 270 nM | 55100 ± 8070 nM | 6950 | 43 ± 5 nM | 2320 ± 110 nM | – | –
7 | Cc1cc(C)cc(S(=O)(=O)c2c(C(=O)NCCCCCNS(=O)(=O)c3cccnc3)[nH]c3ccc(Cl)cc23)c1 [R10L5, 5-Chloro-3-((3,5-dimethylphenyl)sulfonyl)-N-(5-(pyridine-3-sulfonamido)pentyl)-1H-indole-2-carboxamide] | 10600 ± 6700 nM | 46 ± 14 nM | 190 ± 34 nM | 110 ± 22 nM | 140 ± 75 nM | 41900 ± 2180 nM | 5513 | 29 ± 12 nM | 730 ± 34 nM | – | –
8 | Cc1cc(C)cc(S(=O)(=O)c2c(C(=O)NCCNS(=O)(=O)c3ccccc3F)[nH]c3ccc(Cl)cc23)c1 [R11L2, 5-Chloro-3-((3,5-dimethylphenyl)sulfonyl)-N-(2-((2-fluorophenyl)sulfonamido)ethyl)-1H-indole-2-carboxamide] | 3040 ± 210 nM | 250 ± 71 nM | 210 ± 53 nM | 280 ± 36 nM | 1230 ± 430 nM | 199000 ± 8290 nM | 11,116 | 200 ± 36 nM | 2680 ± 250 nM | – | –
9 | Cc1cc(C)cc(S(=O)(=O)c2c(C(=O)NCCCNS(=O)(=O)c3ccccc3F)[nH]c3ccc(Cl)cc23)c1 [R11L3, 5-Chloro-3-((3,5-dimethylphenyl)sulfonyl)-N-(3-((2-fluorophenyl)sulfonamido)propyl)-1H-indole-2-carboxamide] | 12800 ± 10100 nM | 160 ± 78 nM | 280 ± 35 nM | 610 ± 140 nM | 880 ± 520 nM | 192000 ± 4990 nM | 12,570 | 68 ± 2 nM | 7120 ± 760 nM | – | –
10 | Cc1cc(C)cc(S(=O)(=O)c2c(C(=O)NCCCCNS(=O)(=O)c3ccccc3F)[nH]c3ccc(Cl)cc23)c1 [R11L4, 5-Chloro-3-((3,5-dimethylphenyl)sulfonyl)-N-(4-((2-fluorophenyl)sulfonamido)butyl)-1H-indole-2-carboxamide] | > 190000 nM | 63 ± 25 nM | 170 ± 17 nM | 200 ± 17 nM | 290 ± 34 nM | 189500 ± 1320 nM | 20,621 | 36 ± 5 nM | 1740 ± 320 nM | – | –
11 | Cc1cc(C)cc(S(=O)(=O)c2c(C(=O)NCCNS(=O)(=O)c3cccc(F)c3)[nH]c3ccc(Cl)cc23)c1 [R12L2, 5-Chloro-3-((3,5-dimethylphenyl)sulfonyl)-N-(2-((3-fluorophenyl)sulfonamido)ethyl)-1H-indole-2-carboxamide] | 4940 ± 1240 nM | 460 ± 180 nM | 500 ± 89 nM | 550 ± 89 nM | 2260 ± 550 nM | 187000 ± 4810 nM | 5151 | 440 ± 110 nM | 3300 ± 300 nM | – | –
12 | Cc1cc(C)cc(S(=O)(=O)c2c(C(=O)NCCCNS(=O)(=O)c3cccc(F)c3)[nH]c3ccc(Cl)cc23)c1 [R12L3, 5-Chloro-3-((3,5-dimethylphenyl)sulfonyl)-N-(3-((3-fluorophenyl)sulfonamido)propyl)-1H-indole-2-carboxamide] | 4730 ± 1040 nM | 260 ± 87 nM | 450 ± 120 nM | 750 ± 210 nM | 990 ± 140 nM | 204000 ± 10800 nM | 5799 | 110 ± 43 nM | 3380 ± 450 nM | – | –
13 | Cc1cc(C)cc(S(=O)(=O)c2c(C(=O)NCCCCNS(=O)(=O)c3cccc(F)c3)[nH]c3ccc(Cl)cc23)c1 [R12L4, 5-Chloro-3-((3,5-dimethylphenyl)sulfonyl)-N-(4-((3-fluorophenyl)sulfonamido)butyl)-1H-indole-2-carboxamide] | > 173000 nM | 63 ± 17 nM | 240 ± 68 nM | 190 ± 34 nM | 240 ± 34 nM | 186000 ± 12500 nM | 10,126 | 49 ± 12 nM | 1450 ± 410 nM | – | –
14 | Cc1cc(C)cc(S(=O)(=O)c2c(C(=O)NCCNS(=O)(=O)C3CC3)[nH]c3ccc(Cl)cc23)c1 [R13L2, 5-Chloro-N-(2-(cyclopropanesulfonamido)ethyl)-3-((3,5-dimethylphenyl)sulfonyl)-1H-indole-2-carboxamide] | 32600 ± 7960 nM | 53 ± 22 nM | 110 ± 20 nM | 180 ± 57 nM | 510 ± 120 nM | 172000 ± 6910 nM | 41,951 | 55 ± 16 nM | 1650 ± 390 nM | ~14 times | 4.1 ± 0.79 nM
